Experiment [1] relates to NLRP3 inflammasome. Put plainly: IL-1β secretion assay. The class given is cell-based. The settings on record: PMA-differentiated THP-1 cells, 15 μM nigericin, HTRF. An outline of the steps: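 PMA-differentiated THP-1 cells stimulated with nigericin to trigger NLRP3-dependent IL-1β secretion, measured by HTRF after 3 h. Viability/pyroptosis monitored with PrestoBlue. IC50 from logistic fit of % inhibition vs concentration with Hill coefficient.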

Experiment [2] has as its system NF-kB-dependent TNF-α secretion. Put plainly: TNF-α secretion assay (counterscreen). In kind it is cell-based. To be noted: Homo sapiens; THP-1 cells, Pam3CSK4-stimulated, 3 hours, HTRF. The method, then: Monocytic THP-1 cells were maintained according to providers' instructions in RPMI media as described above. Undifferentiated cells were plated at 50,000 cells per well in a 384-well flat-bottom cell culture plates (Greiner, #781986), and allowed to rest overnight. Experimental compounds were prepared and added as described above. TNF-α secretion was triggered by the addition of either 1 μg/mL LPS (Sigma, #L4391) or 100 ng/mL Pam3CSK4 (Invivogen, #tlrl-pms) depending on the experiment, and cells were incubated for 3 hours. 10 μL supernatant was removed, and TNF-α levels were monitored using an HTRF assay (CisBio, #62TNFPEC) according to manufacturers' instructions. Viability was monitored as described above.
IC50 values were calculated from the plot of percentage of inhibition versus the inhibitor concentration by a logistics fit according to: y=A2+(A1−A2)/(1+(x/IC50)^p) where y is the %-inhibition at the inhibitor concentration, x. A1 is the lowest inhibition value, i.e. 0%, and A2 the maximum inhibition value, i.e. 100%. The exponent, p, is the Hill coefficient. The curve fitting was conducted with an internally developed software suite. […]

Structures can show the parent of a compound that is named as a salt.

In patent US12168012B2, “NLRP3 inflammasome inhibitors” (Novartis AG, priority 2018, dated 2024) one finds IC50 data, which are given here for 25 compounds.

Consider `Cc1cc2c(cc3c(=O)n(CC(=O)N[C@@H]4CCCN(C)C4)nc(C(C)C)n32)s1` [Ex 40, (R)-2-(5-Isopropyl-2-methyl-8-oxothieno[2′,3′:4,5]pyrrolo[1,2-d][1,2,4]triazin-7(8H)-yl)-N-(1-methylpiperidin-3-yl)acetamide], for which the IC50 in experiment [1] (Homo sapiens, THP-1, 3 h) was 56.3 nM; in experiment [2], above 100 µM.

For the compound `Cc1cc2c(cc3c(=O)n(CC(=O)NC4CC4)nc(C(C)C)n32)s1` [Ex 41, N-Cyclopropyl-2-(5-isopropyl-2-methyl-8-oxothieno[2′,3′:4,5]pyrrolo[1,2-d][1,2,4]triazin-7(8H)-yl)acetamide], the IC50 in experiment [1] (Homo sapiens, THP-1, 3 h) was 1170 nM; in experiment [2] it was above 100 µM.

In the case of `CC(O)c1nn(CC(=O)Nc2cccnc2)c(=O)c2cc3sc(Cl)cc3n12` (centres unmarked) [Ex 42, 2-(2-Chloro-5-(1-hydroxyethyl)-8-oxothieno[2′,3′:4,5]pyrrolo[1,2-d][1,2,4]triazin-7(8H)-yl)-N-(pyridin-3-yl)acetamide], the IC50 in experiment [1] (Homo sapiens, THP-1, 3 h) is 1100 nM; in experiment [2] it was above 100 µM.

As for `CC(O)c1nn(CC(=O)N[C@@H]2CCCNC2)c(=O)c2cc3sc(Cl)cc3n12` (stereo partly drawn) [Ex 43, 2-(2-Chloro-5-(1-hydroxyethyl)-8-oxothieno[2′,3′:4,5]pyrrolo[1,2-d][1,2,4]triazin-7(8H)-yl)-N-((R)-piperidin-3-yl)acetamide hydrochloride], the IC50 in experiment [1] (Homo sapiens, THP-1, 3 h) is 2050 nM; in experiment [2] it was above 100 µM.

Take `CC(O)c1nn(CC(=O)N[C@@H]2CCCN(C)C2)c(=O)c2cc3sc(Cl)cc3n12` (stereo partly drawn) [Ex 44, 2-(2-Chloro-5-(1-hydroxyethyl)-8-oxothieno[2′,3′:4,5]pyrrolo[1,2-d][1,2,4]triazin-7(8H)-yl)-N-((R)-1-methylpiperidin-3-yl)acetamide]: the IC50 in experiment [1] (Homo sapiens, THP-1, 3 h) was 112 nM; in experiment [2] it was above 100 µM.

For `CC(O)c1nn(CC(=O)N[C@@H]2CCC[C@@](C)(O)C2)c(=O)c2cc3sc(Cl)cc3n12` (stereo partly drawn) [Ex 45, 2-(2-Chloro-5-(1-hydroxyethyl)-8-oxothieno[2′,3′:4,5]pyrrolo[1,2-d][1,2,4]triazin-7(8H)-yl)-N-((1R,3R)-3-hydroxy-3-methylcyclohexyl)acetamide], the IC50 is 244 nM in experiment [1] (Homo sapiens, THP-1, 3 h) and above 100 µM in experiment [2].

As for `CC(C)c1nn(CC(=O)N[C@@H]2CCC(=O)NC2)c(=O)c2cc3scnc3n12` [Ex 46, (R)-2-(5-Isopropyl-8-oxothiazolo[5′,4′:4,5]pyrrolo[1,2-d][1,2,4]triazin-7(8H)-yl)-N-(6-oxopiperidin-3-yl)acetamide], the IC50 is 50.8 nM in experiment [1] (Homo sapiens, THP-1, 3 h) and above 100 µM in experiment [2].

Consider `CC(C)c1nn(CC(=O)N[C@@H]2CCC[C@@H](O)C2)c(=O)c2cc3scnc3n12` [Ex 47, N-((1R,3R)-3-Hydroxycyclohexyl)-2-(5-isopropyl-8-oxothiazolo[5′,4′:4,5]pyrrolo[1,2-d][1,2,4]triazin-7(8H)-yl)acetamide], for which the IC50 was 9.1 nM in experiment [1] (Homo sapiens, THP-1, 3 h) and above 100 µM in experiment [2].

Consider `CC(C)c1nn(CC(=O)N[C@@H]2CCC(=O)N(C)C2)c(=O)c2cc3scnc3n12` [Ex 49, (R)-2-(5-Isopropyl-8-oxothiazolo[5′,4′:4,5]pyrrolo[1,2-d][1,2,4]triazin-7(8H)-yl)-N-(1-methyl-6-oxopiperidin-3-yl)acetamide], for which the half-inhibitory concentration (IC50) in experiment [1] (3 hours) was 26.4 nM; in experiment [2], above 100 µM.

As to `Cc1nc2c(cc3c(=O)n(CC(=O)N[C@@H]4CCCNC4)nc(C(C)C)n32)s1` [Ex 50, (R)-2-(5-Isopropyl-2-methyl-8-oxothiazolo[5′,4′:4,5]pyrrolo[1,2-d][1,2,4]triazin-7(8H)-yl)-N-(piperidin-3-yl)acetamide], the IC50 is 108 nM in experiment [1] (Homo sapiens, THP-1, 3 h) and above 100 µM in experiment [2].

Regarding `CC(C)c1nn(CC(=O)NC2CC2)c(=O)c2cc3scnc3n12` [Ex 51, N-Cyclopropyl-2-(5-isopropyl-8-oxothiazolo[5′,4′:4,5]pyrrolo[1,2-d][1,2,4]triazin-7(8H)-yl)acetamide], the IC50 in experiment [1] (Homo sapiens, THP-1, 3 h) is 138 nM; in experiment [2] it was above 100 µM.

On to `CC(C)c1nn(CC(=O)N[C@@H]2C[C@@H]2F)c(=O)c2cc3sc(Cl)cc3n12` [Ex 52, 2-(2-Chloro-5-isopropyl-8-oxothieno[2′,3′:4,5]pyrrolo[1,2-d][1,2,4]triazin-7(8H)-yl)-N-((1R,2S)-2-fluorocyclopropyl)acetamide], for which the IC50 in experiment [1] (Homo sapiens, THP-1, 3 h) was 660 nM; in experiment [2] it was above 100 µM.

On to `CC(C)c1nn(CC(=O)N[C@H]2CC[C@H](C(=O)O)CC2)c(=O)c2cc3sc(Cl)cc3n12` [Ex 53, (1r,4r)-4-(2-(2-Chloro-5-isopropyl-8-oxothieno[2′,3′:4,5]pyrrolo[1,2-d][1,2,4]triazin-7(8H)-yl)acetamido)cyclohexane-1-carboxylic acid], for which the IC50 in experiment [1] (Homo sapiens, THP-1, 3 h) is 34.2 nM; in experiment [2], above 100 µM.

Consider `CC(C)c1nn(CC(=O)N[C@H]2CC[C@@H](C(=O)O)CC2)c(=O)c2cc3sc(Cl)cc3n12` [Ex 54, (1s,4s)-4-(2-(2-Chloro-5-isopropyl-8-oxothieno[2′,3′:4,5]pyrrolo[1,2-d][1,2,4]triazin-7(8H)-yl)acetamido)cyclohexane-1-carboxylic acid], for which the IC50 in experiment [1] (Homo sapiens, THP-1, 3 h) is 562 nM; in experiment [2], above 100 µM.

In the case of `CC(C)c1nn(CC(=O)N[C@H]2CCC[C@@H](C(=O)O)C2)c(=O)c2cc3sc(Cl)cc3n12` [Ex 55, (1R,3S)-3-(2-(2-Chloro-5-isopropyl-8-oxothieno[2′,3′:4,5]pyrrolo[1,2-d][1,2,4]triazin-7(8H)-yl)acetamido)cyclohexane-1-carboxylic acid], the IC50 is 843 nM in experiment [1] (Homo sapiens, THP-1, 3 h) and above 100 µM in experiment [2].

Regarding `CC(C)c1nn(CC(=O)Nc2ccc(F)cc2F)c(=O)c2cc3sc(Cl)cc3n12` [Ex 58, 2-(2-Chloro-5-isopropyl-8-oxothieno[2′,3′:4,5]pyrrolo[1,2-d][1,2,4]triazin-7(8H)-yl)-N-(2,4-difluorophenyl)acetamide], the IC50 in experiment [1] (Homo sapiens, THP-1, 3 h) was 176 nM; in experiment [2] it was above 100 µM.

For the compound `CC(C)c1nn(CC(=O)N[C@@H]2CCCOC2)c(=O)c2cc3sc(Cl)cc3n12` [Ex 59, (R)-2-(2-Chloro-5-isopropyl-8-oxothieno[2′,3′:4,5]pyrrolo[1,2-d][1,2,4]triazin-7(8H)-yl)-N-(tetrahydro-2H-pyran-3-yl)acetamide], the IC50 was 201 nM in experiment [1] (Homo sapiens, THP-1, 3 h) and above 100 µM in experiment [2].

For the compound `CC(C)(O)c1nn(CC(=O)NC2CC2)c(=O)c2cc3sc(Cl)cc3n12` [Ex 62, 2-(2-Chloro-5-(2-hydroxypropan-2-yl)-8-oxothieno[2′,3′:4,5]pyrrolo[1,2-d][1,2,4]triazin-7(8H)-yl)-N-cyclopropylacetamide], the IC50 is 76.1 nM in experiment [1] (Homo sapiens, THP-1, 3 h) and above 100 µM in experiment [2].

Regarding `CC(C)(O)c1nn(CC(=O)N[C@@H]2CCC[C@@H](O)C2)c(=O)c2cc3sc(Cl)cc3n12` [Ex 64, 2-(2-Chloro-5-(2-hydroxypropan-2-yl)-8-oxothieno[2′,3′:4,5]pyrrolo[1,2-d][1,2,4]triazin-7(8H)-yl)-N-((1R,3R)-3-hydroxycyclohexyl)acetamide], the IC50 was 3.4 nM in experiment [1] (Homo sapiens, THP-1, 3 h) and above 100 µM in experiment [2].

Consider `CC(C)c1nn(CC(=O)NCCO)c(=O)c2cc3sc(Cl)cc3n12` [Ex 68, 2-(2-Chloro-5-isopropyl-8-oxothieno[2′,3′:4,5]pyrrolo[1,2-d][1,2,4]triazin-7(8H)-yl)-N-(2-hydroxyethyl)acetamide], for which the IC50 is 45.2 nM in experiment [1] (Homo sapiens, THP-1, 3 h) and above 100 µM in experiment [2].

On to `CC(C)c1nn(CC(=O)NC[C@H](C)O)c(=O)c2cc3sc(Cl)cc3n12` [Ex 69, (S)-2-(2-Chloro-5-isopropyl-8-oxothieno[2′,3′:4,5]pyrrolo[1,2-d][1,2,4]triazin-7(8H)-yl)-N-(2-hydroxypropyl)acetamide], for which the IC50 is 58.8 nM in experiment [1] (Homo sapiens, THP-1, 3 h) and above 100 µM in experiment [2].

In the case of `CC(C)c1nn(CC(=O)NC[C@@H](C)O)c(=O)c2cc3sc(Cl)cc3n12` [Ex 70, (R)-2-(2-Chloro-5-isopropyl-8-oxothieno[2′,3′:4,5]pyrrolo[1,2-d][1,2,4]triazin-7(8H)-yl)-N-(2-hydroxypropyl)acetamide], the IC50 in experiment [1] (Homo sapiens, THP-1, 3 h) is 34.9 nM; in experiment [2], above 100 µM.

As for `CC(C)c1nn(CC(=O)N[C@H]2C[C@@](C)(O)C2)c(=O)c2cc3sc(Cl)cc3n12` [Ex 72, 2-(2-Chloro-5-isopropyl-8-oxothieno[2′,3′:4,5]pyrrolo[1,2-d][1,2,4]triazin-7(8H)-yl)-N-((1s,3s)-3-hydroxy-3-methylcyclobutyl)acetamide], the IC50 is 0.4 nM in experiment [1] (Homo sapiens, THP-1, 3 h) and above 100 µM in experiment [2].

`CC(C)c1nn(CC(=O)NC23CCC(O)(CC2)CC3)c(=O)c2cc3sc(Cl)cc3n12` [Ex 76, 2-(2-Chloro-5-isopropyl-8-oxothieno[2′,3′:4,5]pyrrolo[1,2-d][1,2,4]triazin-7(8H)-yl)-N-(4-hydroxybicyclo[2.2.2]octan-1-yl)acetamide]: the half-maximal inhibitory concentration (IC50) in experiment [1] (Homo sapiens, THP-1, 3 h) was 45.1 nM; in experiment [2] it was above 100 µM.

On to `CC(C)c1nn(CC(=O)NCCC(C)(C)O)c(=O)c2cc3sc(Cl)cc3n12` [Ex 77, 2-(2-Chloro-5-isopropyl-8-oxothieno[2′,3′:4,5]pyrrolo[1,2-d][1,2,4]triazin-7(8H)-yl)-N-(3-hydroxy-3-methylbutyl)acetamide], for which the IC50 in experiment [1] (Homo sapiens, THP-1, 3 h) is 14 nM; in experiment [2], above 100 µM.
